# Where a SMILES comes first, the peptide text is derived from it. Bridges are numbered along the chain shown (N, C = ends). [ ]: non-standard residue; d: D form. The star is where a group is joined. Phe(4-COOH) = N[C@@H](Cc1ccc(C(=O)O)cc1)C(=O)O; Bip = N[C@@H](Cc1ccc(-c2ccccc2)cc1)C(=O)O; 4Pal = N[C@@H](Cc1ccncc1)C(=O)O; Cha = N[C@@H](CC1CCCCC1)C(=O)O; Carboxymethyl = O=C(O)C*; Nle = CCCC[C@H](N)C(=O)O; Orn = NCCC[C@H](N)C(=O)O; Dab = NCC[C@H](N)C(=O)O; Dap = NC[C@H](N)C(=O)O
# Molecular target: T1, human PD-1 / PD-L1-Ig binding on Jurkat cell line over-expressing human PD-1 (Jurkat-PD-1) (Homo sapiens, UniProt Q15116)
# T1 construct: expressed in transfected cells; host or cells: Jurkat
# T1 sequence (Q15116 25-288): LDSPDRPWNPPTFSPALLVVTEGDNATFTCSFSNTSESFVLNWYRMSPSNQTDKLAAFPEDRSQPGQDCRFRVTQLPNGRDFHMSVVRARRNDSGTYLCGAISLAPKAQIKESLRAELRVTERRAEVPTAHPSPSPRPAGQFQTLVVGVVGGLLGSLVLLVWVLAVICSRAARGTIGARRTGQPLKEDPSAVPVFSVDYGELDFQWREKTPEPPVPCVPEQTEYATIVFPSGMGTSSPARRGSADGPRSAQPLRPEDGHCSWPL
# Experiment: Jurkat-PD-1 Cell Binding High-Content Screening Assay (CBA)
# Type: cell-based
# Conditions: Jurkat-PD-1 cells, PE-labeled PD-L1-Ig 20 nM final; read-out: Jurkat HPD1_PDL1 IC50
# In short: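 Cell-bound PE-labeled PD-L1-Ig (20 nM final, 1 h) measured by high-content imaging after fixation and Hoechst 33342 counterstain. Compound was applied first for 2 h at 37° C. to Jurkat cells over-expressing human PD-1 in DMEM with 10% FCS.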
row,SMILES,IC50 [nM]
1,CCCC[C@@H]1NC(=O)[C@H](CC(N)=O)NC(=O)[C@@H](CC(C)C)NC(=O)[C@H](CN)NC(=O)[C@H](C(C)C)NC(=O)[C@H](Cc2ccc(-c3ccccc3)cc2)NC(=O)[C@H](CC(C)C)NC(=O)[C@H](Cc2c[nH]c3ccccc23)NC(=O)[C@H](CC(=O)O)NC(=O)[C@H](Cc2ccncc2)NC(=O)[C@H](CN)NC(=O)CSC[C@@H](C(=O)NCC(N)=O)NC(=O)[C@H](CO)NC(=O)[C@H](C(C)C)NC1=O [Compound 1400] ({CH2CO}-[Dap][4Pal]DWL[Bip]V[Dap][dL]N[Nle]VSCG-NH2; thioether N-14),29.1
2,CCCC[C@@H]1NC(=O)[C@H](CC(N)=O)NC(=O)[C@@H](CC(C)C)NC(=O)[C@H](CN)NC(=O)[C@H](C(C)C)NC(=O)[C@H](Cc2ccc(-c3ccccc3)cc2)NC(=O)[C@H](CC(C)C)NC(=O)[C@H](Cc2c[nH]c3ccccc23)NC(=O)[C@H](CC(=O)O)NC(=O)[C@H](Cc2ccncc2)NC(=O)[C@H](Cc2ccc(OCC(=O)O)cc2)NC(=O)CSC[C@@H](C(=O)NCC(N)=O)NC(=O)[C@H](CO)NC(=O)[C@H](C(C)C)NC1=O [Compound 1401] ({CH2CO}-Y(Carboxymethyl)[4Pal]DWL[Bip]V[Dap][dL]N[Nle]VSCG-NH2; thioether N-14),22
3,CCCC[C@@H]1NC(=O)[C@H](CCN)NC(=O)[C@@H](CC(C)C)NC(=O)[C@H](CCCN)NC(=O)[C@H](C(C)C)NC(=O)[C@H](Cc2ccc(-c3ccccc3)cc2)NC(=O)[C@H](CC(C)C)NC(=O)[C@H](Cc2c[nH]c3ccccc23)NC(=O)[C@H](CC(=O)O)NC(=O)[C@H](Cc2ccc(OCC(=O)O)cc2)NC(=O)[C@H](CN)NC(=O)CSC[C@@H](C(=O)NCC(N)=O)NC(=O)[C@H](CO)NC(=O)[C@H](C(C)C)NC1=O [Compound 1408] ({CH2CO}-[Dap]Y(Carboxymethyl)DWL[Bip]V[Orn][dL][Dab][Nle]VSCG-NH2; thioether N-14),8.2
4,CCCC[C@@H]1NC(=O)[C@H](CCN)NC(=O)[C@@H](CC(C)C)NC(=O)[C@H](CCCN)NC(=O)[C@H](C(C)C)NC(=O)[C@H](Cc2ccc(-c3ccccc3)cc2)NC(=O)[C@H](CC(C)C)NC(=O)[C@H](Cc2c[nH]c3ccccc23)NC(=O)[C@H](CC(=O)O)NC(=O)[C@H](Cc2ccc(OCC(=O)O)cc2)NC(=O)[C@H](Cc2ccc(OCC(=O)O)cc2)NC(=O)CSC[C@@H](C(=O)NCC(N)=O)NC(=O)[C@H](CO)NC(=O)[C@H](C(C)C)NC1=O [Compound 1409] ({CH2CO}-Y(Carboxymethyl)Y(Carboxymethyl)DWL[Bip]V[Orn][dL][Dab][Nle]VSCG-NH2; thioether N-14),16.8
5,CCCC[C@@H]1NC(=O)[C@H](CCN)NC(=O)[C@@H](CC(C)C)NC(=O)[C@H](CCCN)NC(=O)[C@H](C(C)C)NC(=O)[C@H](Cc2ccc(-c3ccccc3)cc2)NC(=O)[C@H](CC(C)C)NC(=O)[C@H](Cc2c[nH]c3ccccc23)NC(=O)[C@H](CC(=O)O)NC(=O)[C@H](Cc2ccc(C(=O)O)cc2)NC(=O)[C@H](Cc2ccc(OCC(=O)O)cc2)NC(=O)CSC[C@@H](C(=O)NCC(N)=O)NC(=O)[C@H](CO)NC(=O)[C@H](C(C)C)NC1=O [Compound 1410] ({CH2CO}-Y(Carboxymethyl)[Phe(4-COOH)]DWL[Bip]V[Orn][dL][Dab][Nle]VSCG-NH2; thioether N-14),7.3
6,CC(C)C[C@H]1NC(=O)[C@H](CN)NC(=O)[C@H](C(C)C)NC(=O)[C@H](Cc2ccc(-c3ccccc3)cc2)NC(=O)[C@H](C(C)C)NC(=O)[C@H](Cc2c[nH]c3ccccc23)NC(=O)[C@H](CC(=O)O)NC(=O)[C@H](Cc2ccc(O)cc2)NC(=O)[C@H](Cc2ccccc2)NC(=O)CSC[C@@H](C(=O)NCC(N)=O)NC(=O)[C@H](CO)NC(=O)[C@H](C(C)C)NC(=O)[C@H](CC2CCCCC2)NC(=O)[C@H](CC(N)=O)NC1=O [Compound 1412] ({CH2CO}-FYDWV[Bip]V[Dap][dL]N[Cha]VSCG-NH2; thioether N-14),26.9
7,CC(C)C[C@H]1NC(=O)[C@H](CN)NC(=O)[C@H](C(C)C)NC(=O)[C@H](Cc2ccc(-c3ccccc3)cc2)NC(=O)[C@H](C(C)C)NC(=O)[C@H](Cc2c[nH]c3ccccc23)NC(=O)[C@H](CC(=O)O)NC(=O)[C@H](Cc2ccc(C(=O)O)cc2)NC(=O)[C@H](Cc2ccc(OCC(=O)O)cc2)NC(=O)CSC[C@@H](C(=O)NCC(N)=O)NC(=O)[C@H](CO)NC(=O)[C@H](C(C)C)NC(=O)[C@H](CC2CCCCC2)NC(=O)[C@H](CC(N)=O)NC1=O [Compound 1413] ({CH2CO}-Y(Carboxymethyl)[Phe(4-COOH)]DWV[Bip]V[Dap][dL]N[Cha]VSCG-NH2; thioether N-14),8.8
8,Cc1cccc(C[C@@H]2NC(=O)[C@H](CC(=O)O)NC(=O)[C@H](Cc3ccc(C(=O)O)cc3)NC(=O)[C@H](Cc3ccc(OCC(=O)O)cc3)NC(=O)CSC[C@@H](C(=O)N[C@@H](C)C(N)=O)NC(=O)[C@H]([C@@H](C)O)NC(=O)[C@H](C(C)C)NC(=O)[C@H](CC3CCCCC3)NC(=O)[C@H](CCN)NC(=O)[C@@H](CC(C)C)NC(=O)[C@H](CCCN)NC(=O)[C@H](CCCN)NC(=O)[C@H](Cc3ccc(-c4ccccc4)cc3)NC(=O)[C@H](C(C)C)NC2=O)c1 [Compound 1414],9.9

# Second part, the compound after the results:
row,IC50 [nM],SMILES
1,9.9,CC(C)C[C@@H]1NC(=O)[C@H](Cc2c[nH]c3ccccc23)NC(=O)[C@H](CC(=O)O)NC(=O)[C@H](Cc2ccc(OCC(=O)O)cc2)NC(=O)[C@H](Cc2ccncc2)NC(=O)CSC[C@@H](C(=O)NCC(N)=O)NC(=O)[C@H](CO)NC(=O)[C@H](C(C)C)NC(=O)[C@H](CC2CCCCC2)NC(=O)[C@H](CCN)NC(=O)[C@@H](CC(C)C)NC(=O)[C@H](CCCN)NC(=O)[C@H](C(C)C)NC(=O)[C@H](Cc2ccc(-c3ccccc3)cc2)NC1=O [Compound 1402] ({CH2CO}-[4Pal]Y(Carboxymethyl)DWL[Bip]V[Orn][dL][Dab][Cha]VSCG-NH2; thioether N-14)
2,5.9,CC(C)C[C@@H]1NC(=O)[C@H](Cc2c[nH]c3ccccc23)NC(=O)[C@H](CC(=O)O)NC(=O)[C@H](Cc2ccc(OCC(=O)O)cc2)NC(=O)[C@H](CN)NC(=O)CSC[C@@H](C(=O)NCC(N)=O)NC(=O)[C@H](CO)NC(=O)[C@H](C(C)C)NC(=O)[C@H](CC2CCCCC2)NC(=O)[C@H](CCN)NC(=O)[C@@H](CC(C)C)NC(=O)[C@H](CCCN)NC(=O)[C@H](C(C)C)NC(=O)[C@H](Cc2ccc(-c3ccccc3)cc2)NC1=O [Compound 1403] ({CH2CO}-[Dap]Y(Carboxymethyl)DWL[Bip]V[Orn][dL][Dab][Cha]VSCG-NH2; thioether N-14)
3,5.1,CC(C)C[C@@H]1NC(=O)[C@H](Cc2c[nH]c3ccccc23)NC(=O)[C@H](CC(=O)O)NC(=O)[C@H](Cc2ccc(OCC(=O)O)cc2)NC(=O)[C@H](Cc2ccc(OCC(=O)O)cc2)NC(=O)CSC[C@@H](C(=O)NCC(N)=O)NC(=O)[C@H](CO)NC(=O)[C@H](C(C)C)NC(=O)[C@H](CC2CCCCC2)NC(=O)[C@H](CCN)NC(=O)[C@@H](CC(C)C)NC(=O)[C@H](CCCN)NC(=O)[C@H](C(C)C)NC(=O)[C@H](Cc2ccc(-c3ccccc3)cc2)NC1=O [Compound 1404] ({CH2CO}-Y(Carboxymethyl)Y(Carboxymethyl)DWL[Bip]V[Orn][dL][Dab][Cha]VSCG-NH2; thioether N-14)
4,7.4,CC(C)C[C@@H]1NC(=O)[C@H](Cc2c[nH]c3ccccc23)NC(=O)[C@H](CC(=O)O)NC(=O)[C@H](Cc2ccc(C(=O)O)cc2)NC(=O)[C@H](Cc2ccc(OCC(=O)O)cc2)NC(=O)CSC[C@@H](C(=O)NCC(N)=O)NC(=O)[C@H](CO)NC(=O)[C@H](C(C)C)NC(=O)[C@H](CC2CCCCC2)NC(=O)[C@H](CCN)NC(=O)[C@@H](CC(C)C)NC(=O)[C@H](CCCN)NC(=O)[C@H](C(C)C)NC(=O)[C@H](Cc2ccc(-c3ccccc3)cc2)NC1=O [Compound 1405] ({CH2CO}-Y(Carboxymethyl)[Phe(4-COOH)]DWL[Bip]V[Orn][dL][Dab][Cha]VSCG-NH2; thioether N-14)
5,15.9,CC(C)C[C@@H]1NC(=O)[C@H](Cc2c[nH]c3ccccc23)NC(=O)[C@H](CC(=O)O)NC(=O)[C@H](Cc2ccncc2)NC(=O)[C@H](Cc2ccc(OCC(=O)O)cc2)NC(=O)CSC[C@@H](C(=O)NCC(N)=O)NC(=O)[C@H](CO)NC(=O)[C@H](C(C)C)NC(=O)[C@H](CC2CCCCC2)NC(=O)[C@H](CCN)NC(=O)[C@@H](CC(C)C)NC(=O)[C@H](CCCN)NC(=O)[C@H](C(C)C)NC(=O)[C@H](Cc2ccc(-c3ccccc3)cc2)NC1=O [Compound 1406] ({CH2CO}-Y(Carboxymethyl)[4Pal]DWL[Bip]V[Orn][dL][Dab][Cha]VSCG-NH2; thioether N-14)
6,7.9,CCCC[C@@H]1NC(=O)[C@H](CCN)NC(=O)[C@@H](CC(C)C)NC(=O)[C@H](CCCN)NC(=O)[C@H](C(C)C)NC(=O)[C@H](Cc2ccc(-c3ccccc3)cc2)NC(=O)[C@H](CC(C)C)NC(=O)[C@H](Cc2c[nH]c3ccccc23)NC(=O)[C@H](CC(=O)O)NC(=O)[C@H](Cc2ccc(OCC(=O)O)cc2)NC(=O)[C@H](Cc2ccncc2)NC(=O)CSC[C@@H](C(=O)NCC(N)=O)NC(=O)[C@H](CO)NC(=O)[C@H](C(C)C)NC1=O [Compound 1407] ({CH2CO}-[4Pal]Y(Carboxymethyl)DWL[Bip]V[Orn][dL][Dab][Nle]VSCG-NH2; thioether N-14)
7,9.5,CCCC[C@@H]1NC(=O)[C@H](CCN)NC(=O)[C@@H](CC(C)C)NC(=O)[C@H](CCCN)NC(=O)[C@H](C(C)C)NC(=O)[C@H](Cc2ccc(-c3ccccc3)cc2)NC(=O)[C@H](CC(C)C)NC(=O)[C@H](Cc2c[nH]c3ccccc23)NC(=O)[C@H](CC(=O)O)NC(=O)[C@H](Cc2ccncc2)NC(=O)[C@H](Cc2ccc(OCC(=O)O)cc2)NC(=O)CSC[C@@H](C(=O)NCC(N)=O)NC(=O)[C@H](CO)NC(=O)[C@H](C(C)C)NC1=O [Compound 1411] ({CH2CO}-Y(Carboxymethyl)[4Pal]DWL[Bip]V[Orn][dL][Dab][Nle]VSCG-NH2; thioether N-14)

# From patent US20250163104A1, “MACROCYCLIC IMMUNOMODULATORS” (priority 2021, published 2025)
